Results on two compounds are retold here after patent US9307768B2, “Synergistic combination of a flurochloridone compound and IPBC for dry film protection” (priority 2013, dated 2016).

Assay [1] has as its system Chlorella sp. ATCC 7516. The experiment in a line: Algal efficacy testing of dry paint film (modified ASTM 5589, 6-well plates). The assay is classed as cell-based. The conditions noted are these: 3 weeks; for Total conc: total biocide concentration in paint reaching pass level (at least 75% inhibition). Here is the method:
(§1) Slurries containing 33% antimicrobial active ingredient (flurochloridone) were post added to a white, acrylic/silicone based outdoor paint free of biocides to give a total active ingredient concentration of 10000 and 1000 ppm respectively. ROCIMA™ 250 (40% IPBC) was post added to a white, acrylic/silicone based outdoor paint free of biocides to give a total active ingredient concentration of 10000 and 1000 ppm respectively. These paints were then diluted with an antimicrobial free acrylic/silicone based paint and mixed to prepare targeted concentrations of antimicrobial compounds for the testing. The total biocides concentrations tested were 125, 250, 500, 1000, 2000 and 5000 ppm. After biocides addition or dilution, the paints were mixed 90 seconds with the horse power shaker (AXEL 75M3372/ Agitateur SO-10MI) until uniformity was achieved. Paints containing different antimicrobial compounds at the same levels were mixed together in order to obtain the desired ratio of antimicrobial compounds. After one day, the paints were applied to Schleicher & Schuell filter paper at 280 μm wet film thickness and dried for 3 days at room temperature avoiding direct exposure to sunlight. Square discs (1.6 cm×1.6 cm) were cut out from each panel and were used as the substrate for algal efficacy tests. This sample size allowed for an agar border when the sample disc was placed into the well of the test plate.
(§2) Algal efficacy was tested according to modified ASTM 5589 which is a standard accelerated test method for determining resistance of various coatings (including paints) to algal defacement. To accommodate for high-throughput screening, this method was scaled down from petri dishes to 6-well plates. Bold Modified Basal Freshwater Nutrient Solution was used as growth medium. A single coated filter paper coupon was placed with a pair of sterile forceps at the center of the agar plug (on top) with the painted surface facing upwards. Algal inoculums were prepared by mixing equal concentrations (1×10^6 cfu/ml) and equal volumes of exponentially growing algae cultures.
(§3) Each well that contains a tested coupon was inoculated with 1750 μl of algal suspensions (1×10^6 cfu/ml) making sure that the whole surface (paint film as well as the agar surrounding it) was evenly covered. The plates were incubated at room temp (21° C.-25° C.) with cyclic exposure to light and dark phases, for a period of three weeks. The total area inhibited was evaluated at the end of each week according to percent area covered in 5% increments.
(§4) At the end of the three week incubation period, the samples were scored for percent inhibition regarding color intensity compared to the blank sample.
(§5) The SI is calculated based on F. C. Kull et.
(§6) The minimal targeted inhibition was set at 75%, meaning a coupon with at least 75% algal growth inhibition was considered as a pass.

Assay [2] concerns Stichococcus bacillaris SAG 379-1a. Described as above. Type of assay: cell-based. Conditions: 3 weeks; for Total conc: total biocide concentration in paint reaching pass level (at least 75% inhibition). How it is done: as §1, §2, §3, §4, §5, §6

Molecules are shown by their SMILES.

By inhibition is commonly meant the share of the control response that was lost under treatment. A higher inhibition goes with a strong effect. For the compound `O=C1C(Cl)C(CCl)CN1c1cccc(C(F)(F)F)c1` (centres unmarked) [Flurochloridone, 3-chloro-4-(chloromethyl)-1-[3-(trifluoromethyl)phenyl]-2-pyrrolidinone], the inhibition at 5000 ppm in assay [1] (504 h, total conc 5000 ppm) worked out at 85%; in assay [2] (Stichococcus bacillaris, 504 h, total conc 5000 ppm), 90%. Also, the Total conc in assay [1] and in assay [2] was 5000 ppm in each case.
As a reminder, the % inhibition is the percentage by which the read-out fell short of the control. High values mean a strong effect, low ones a weak effect. Regarding `CCCCNC(=O)OCC#CI` [IPBC, 3-Iodo-2-propynyl-butylcarbamate], the “% inhibition” value stood at 85% in assay [1] (total conc 2000 ppm) and 90% in assay [2] (total conc 2000 ppm). In addition, the Total conc in assay [1] and in assay [2] was 2000 ppm each time.
